Results reported in patent publication US9173878B2, “Brain function improving agent” (Tohoku University, priority 2012, dated 2015).
Counter-ions that a name gives are not always drawn.

What was measured:
CaMKII [1] = assay: CaMKII self-phosphorylation (activation) in cultured mouse cerebral cortex cell, immunoblot; format: cell-based; conditions: 100 pM, 30 minutes of incubation
Protocol: The above frozen mouse brain slice segment (hippocampus CA1 region) is used for homogenization on ice by adding 150 μL homogenizing buffer (50 mM Tris-HCl pH 7.5, 0.5% Triton X-100, 4 mM EGTA, 0.5 M NaCl, 10 mM EDTA, 1 mM Na3VO4, 30 mM sodium pyrophosphate, 50 mM NaF, 1 mM DTT, 100 nM calyculin A, 50 μg/mL leupeptin, 25 μg/mL pepstatin A, 50 μg/mL trypsin inhibitor) per sample. Then, centrifugation was performed using a refrigerated centrifuge (14,000×g, 10 minutes, 4° C.), after which 100 μL of supernatant was collected and 20 μL of 6× Laemmli buffer was added to the supernatant to be boiled at 100° C. for 3 minutes, to form an immunoblotting sample. The protein concentration was measured by the Bradford method using a part of the supernatant. Reagants containing the same amount of protein were added to 10% SDS-polyacrylamido electrophoresis gel (SDS-PAGE gel), and SDS-PAGE was performed at 80 mA per 1 sheet of gel for 180 minutes. After separation by electrophoresis, transcription to a PVDF membrane was performed at 70 V for 120 minutes. […] After washing with a TTBS solution, ECL detection system (GE healthcare) was used to induce luminescence of HRP that labels the second antibody, and the X-ray film (Fuji Medical X-ray Film, Fuji Film) was sensitized to detect the band. An NIH image analysis software was used for a quantification analysis of the immunoreaction product.
The dispersion cultivation of a mouse cerebral cortex cell was performed by a previously reported method (Fukunaga et al., J. Biol. Chem. 267, 22527-22533, 1992). […] The frozen cerebral cortex cells were subjected to quantification analysis of the activation state (self-phosphorylation reaction) of CaMKII by the immunoblotting method after homogenization, similarly to the method in Test Example 2.

[2] = tested on: non-transfected mouse neuroblastoma cell line Neuro2A; assay: Calcium imaging (Fura-2) in T-type calcium channel non-expressing Neuro2A cells; format: cell-based
Protocol: (§1) The cells of mouse neuroblastoma cell line Neuro2A were purchased from the Human Science Research Resources Bank (#IFO50081, Osaka, Japan). […] Then, the Neuro2A cells were seeded to a glass bottom dish at a concentration of 1 to 2×10^6 cell/φ35-mm dish, and cultivated for 24 hours in a standard culture medium, and the cells were transfected using Lipofectamine 2000 (Invitrogen, Carsbad, Calif., USA) and using a plasmid vector containing a T-type calcium channel (Cav 3.1) genes (serum-free culture of Lipofectamine 2000: DNA=1 μl: 1 μg, 1.5 ml). The T-type calcium channel (Cav 3.1) gene, the plasmid vector pCMV-SPORT6, and the Lipofectamine 2000 were respectively purchased from OriGene Technologies, Inc., Thermo Fisher Scientific Ltd., and Invitrogen, and the transfection was performed according to the protocol attached to Lipofectamine 2000 other than the rate adjustment of the Lipofectamine 2000 and plasmid vector. The serum-free culture was replaced with a standard culture 6 hours after transfect, and calcium imaging (calcium concentration measurement) was performed after Cav 3.1 expression was confirmed after 48 hours of culture. T-type calcium channel expressing Neuor2A cells were dispersed in a glass bottom dish, and 2.5 μM of Fura-2-AM (Sigma, St Louis, Mo., USA) was added to the dish in perfusion (Krebs-Hepes buffer; KRH), then the dish was incubated at 37° C. for 30 minutes. A Fura-2-AM-free KRH was replaced with perfusion, and the Neuro2A cells were stimulized with SAK3 (100 pM) as the intracellular calcium was measured with a fluorescent microscope, then the cells were further stimulized with nicotin (1 μM), ATP (0.1 μM), DHPG (20 μM), as necessary.

[3] = tested on: mouse hippocampus CA1 region; assay: Long-term potentiation of synaptic transmission (LTP), fEPSP in hippocampus slice; format: cell-based; conditions: 100 pM in artificial cerebrospinal fluid
Protocol: (§2) The brain of a male mouse C57BL/6 (10-12 weeks old) was sagitally sectioned, then a coronal section brain slice (400 μm) including a hippocampus CA1 region was prepared. The hippocampus slice was recovered in an artificial cerebrospinal fluid (126 mM NaCl, 5 mM KCl, 26 mM NaHCO3, 1.3 mM MgSO4-7H2O, 1.26 mM KH2PO4, 2.4 mM CaCl2-2H2O, 10 mM glucose) saturated by a 95% O2/5% CO2 gas at 34° C. for 2 hours. The hippocampus slice was transferred to a measurement chamber, and ST101 (100 pM), SAK1 (100 pM), SAK3 (100 pM) were added to the artificial cerebrospinal fluid, and perfused. Then, the Schaffer branch to be input to the hippocampus CA1 region and the commissural fibers were stimulated by stimulus electrodes, and the postsynaptic potential (fEPSP; field excitatory postsynaptic potential) in the CA1 region induced thereby was measured. After measurement, just the hippocampus CA1 region was sliced from the slice segment, and frozen for preservation at −80° C. for measurement with immunoblotting.

Alzheimer's disease = conditions: treating Alzheimer's disease; cited from earlier work
[4] = tested on: olfactolectomy mouse (OBX mouse); assay: Acetylcholine liberation in hippocampus by microdialysis; format: in vivo
Protocol: The amount of acetylcholine liberated in hippocampus is measured by the microdialysis method. The set up of guide cannula and dialysis probe (AG-4; Eicom, Kyoto, Japan) was conducted by fixing the mouse to the brain stereotaxis apparatus under the condition of maintaining anesthesia by 1.5% halothane (Takeda Chemical Industries Ltd., Osaka, Japan), setting up a guide cannula to the left hippocampus (AP=+3. L=+3, V=-1.8), and inserting a dialysis probe to the guide cannula. The collection of a intracerebral Ach sample from a mouse hippocampus was performed a day after the probe set up operation. After the recovery of the mouse from the operation was confirmed, the probe was connected to a micropump (ESP-64; Eicom) under an unanesthetized state and free activity, and a Ringer's solution (1.3 mM CaCl2. 3 mM KCl, 146 mM NaCl and 1 mM MgSO4) was introduced at a flow rate of 2 μL per minute. The dialysis sample was collected every 19.5 minutes and inserted to the acetylcholine separation column using an autoinjector (EAS-20, Eicom), and a system for a trace element analysis of biological samples (HTEC-500; Eicom) was used for analysis. SAK3 was intraperitoneally administered at 40 minutes before test (at the -40 minutes point in the graph of FIG. 8). […]

[5] = biological target: T1, T-type calcium channel (Cav 3.1) (Homo sapiens, UniProt O43497); assay: Calcium imaging (Fura-2) in Cav 3.1 gene-transfected Neuro2A cells; format: cell-based, mouse; conditions: for change in calcium concentration after SAK3 addition: Cav3.1 expressing cells
T1 construct: Thermo Fisher Scientific Ltd. (vector pCMV-SPORT6); host or cells: mouse neuroblastoma cell line Neuro2A, transient transfection with Lipofectamine 2000
Protocol: as §1

CaMKII [6] = assay: CaMKII self-phosphorylation (activation) in hippocampus CA1 region, immunoblot; format: cell-based, mouse; conditions: hippocampus CA1 region 60 minutes after LTP, 100 pM
Protocol: as §2, with “After measurement, just the hippocampus CA1 region was sliced from the slice segment, and frozen for preservation at −80° C. for measurement with immunoblotting.” left out
The above frozen mouse brain slice segment (hippocampus CA1 region) is used for homogenization on ice by adding 150 μL homogenizing buffer (50 mM Tris-HCl pH 7.5, 0.5% Triton X-100, 4 mM EGTA, 0.5 M NaCl, 10 mM EDTA, 1 mM Na3VO4, 30 mM sodium pyrophosphate, 50 mM NaF, 1 mM DTT, 100 nM calyculin A, 50 μg/mL leupeptin, 25 μg/mL pepstatin A, 50 μg/mL trypsin inhibitor) per sample. […] The protein concentration was measured by the Bradford method using a part of the supernatant. […]

[7] = tested on: olfactolectomy mouse (OBX mouse); assay: Y maze test in olfactolectomized (OBX) mouse; format: in vivo; conditions: 1 mg/kg administered into the abdominal, 30 minutes before test
Protocol: (§3) A 10 weeks old DDY male mouse (Nippon SLC, Hamamatsu, Japan) was used in the experiment. The animal was bred in an animal experiment facility in the Pharmaceutical Research Department of the Tohoku University Graduate School under a certain condition (temperature 22±2° C., 12 h: 12 h light-dark cycle) by freely providing water and a feed. Note that the handling of animals and animal experiments in the present paper was performed with an approval of Tohoku University Experimental Animal Committee and under the Tohoku University Animal Experiment Guideline.
(§4) An olfactolectomy mouse (OBX mouse) was prepared using a DDY male mouse. The olfactolectomy operation was performed under the condition of anesthesia by pentobarbital sodium (50 mg/kg i.p.; Dainippon, Osaka, Japan). […]
Y maze test: A Y maze test was performed to assess the spontaneous action amount and the spatial activity memory of a mouse. The mouse was place at the end of one of the arms in the Y maze and allowed to freely explore the maze for 8 minutes, then the positions of the arms that the mouse travelled were recorded in the order of selection. The number of times that the mouse travelled to each arm in the time of measurement was counted as total arm entries. Further, the combinations of consecutively selecting 3 different arms were counted as No. of alternation. […]

[8] = tested on: olfactolectomy mouse (OBX mouse); assay: Novel object recognition test in olfactolectomized (OBX) mouse; format: in vivo; conditions: 1 mg/kg administered into the abdominal, 30 minutes before test
Protocol: as §3
as §4, with “Japan). The mouse was fixed to a brain brace, and the skull bone above the olfactory bulb was drilled to open a hole of 1 mm diameter.” for “Japan).”
Novel object recognition test: The present test uses a mouse's characteristic of preferring novel objects, and the mouse was allowed to freely explore the device in which 2 objects are placed for 10 minutes (training session). […] The numbers of contacts for the 2 objects in the training session and the trial session were measured. The percentage (%) of the number of contacts of the novel object against the number of total contacts in the trial session was calculated as the Discrimination index.

T1 sequence (O43497 whole entry): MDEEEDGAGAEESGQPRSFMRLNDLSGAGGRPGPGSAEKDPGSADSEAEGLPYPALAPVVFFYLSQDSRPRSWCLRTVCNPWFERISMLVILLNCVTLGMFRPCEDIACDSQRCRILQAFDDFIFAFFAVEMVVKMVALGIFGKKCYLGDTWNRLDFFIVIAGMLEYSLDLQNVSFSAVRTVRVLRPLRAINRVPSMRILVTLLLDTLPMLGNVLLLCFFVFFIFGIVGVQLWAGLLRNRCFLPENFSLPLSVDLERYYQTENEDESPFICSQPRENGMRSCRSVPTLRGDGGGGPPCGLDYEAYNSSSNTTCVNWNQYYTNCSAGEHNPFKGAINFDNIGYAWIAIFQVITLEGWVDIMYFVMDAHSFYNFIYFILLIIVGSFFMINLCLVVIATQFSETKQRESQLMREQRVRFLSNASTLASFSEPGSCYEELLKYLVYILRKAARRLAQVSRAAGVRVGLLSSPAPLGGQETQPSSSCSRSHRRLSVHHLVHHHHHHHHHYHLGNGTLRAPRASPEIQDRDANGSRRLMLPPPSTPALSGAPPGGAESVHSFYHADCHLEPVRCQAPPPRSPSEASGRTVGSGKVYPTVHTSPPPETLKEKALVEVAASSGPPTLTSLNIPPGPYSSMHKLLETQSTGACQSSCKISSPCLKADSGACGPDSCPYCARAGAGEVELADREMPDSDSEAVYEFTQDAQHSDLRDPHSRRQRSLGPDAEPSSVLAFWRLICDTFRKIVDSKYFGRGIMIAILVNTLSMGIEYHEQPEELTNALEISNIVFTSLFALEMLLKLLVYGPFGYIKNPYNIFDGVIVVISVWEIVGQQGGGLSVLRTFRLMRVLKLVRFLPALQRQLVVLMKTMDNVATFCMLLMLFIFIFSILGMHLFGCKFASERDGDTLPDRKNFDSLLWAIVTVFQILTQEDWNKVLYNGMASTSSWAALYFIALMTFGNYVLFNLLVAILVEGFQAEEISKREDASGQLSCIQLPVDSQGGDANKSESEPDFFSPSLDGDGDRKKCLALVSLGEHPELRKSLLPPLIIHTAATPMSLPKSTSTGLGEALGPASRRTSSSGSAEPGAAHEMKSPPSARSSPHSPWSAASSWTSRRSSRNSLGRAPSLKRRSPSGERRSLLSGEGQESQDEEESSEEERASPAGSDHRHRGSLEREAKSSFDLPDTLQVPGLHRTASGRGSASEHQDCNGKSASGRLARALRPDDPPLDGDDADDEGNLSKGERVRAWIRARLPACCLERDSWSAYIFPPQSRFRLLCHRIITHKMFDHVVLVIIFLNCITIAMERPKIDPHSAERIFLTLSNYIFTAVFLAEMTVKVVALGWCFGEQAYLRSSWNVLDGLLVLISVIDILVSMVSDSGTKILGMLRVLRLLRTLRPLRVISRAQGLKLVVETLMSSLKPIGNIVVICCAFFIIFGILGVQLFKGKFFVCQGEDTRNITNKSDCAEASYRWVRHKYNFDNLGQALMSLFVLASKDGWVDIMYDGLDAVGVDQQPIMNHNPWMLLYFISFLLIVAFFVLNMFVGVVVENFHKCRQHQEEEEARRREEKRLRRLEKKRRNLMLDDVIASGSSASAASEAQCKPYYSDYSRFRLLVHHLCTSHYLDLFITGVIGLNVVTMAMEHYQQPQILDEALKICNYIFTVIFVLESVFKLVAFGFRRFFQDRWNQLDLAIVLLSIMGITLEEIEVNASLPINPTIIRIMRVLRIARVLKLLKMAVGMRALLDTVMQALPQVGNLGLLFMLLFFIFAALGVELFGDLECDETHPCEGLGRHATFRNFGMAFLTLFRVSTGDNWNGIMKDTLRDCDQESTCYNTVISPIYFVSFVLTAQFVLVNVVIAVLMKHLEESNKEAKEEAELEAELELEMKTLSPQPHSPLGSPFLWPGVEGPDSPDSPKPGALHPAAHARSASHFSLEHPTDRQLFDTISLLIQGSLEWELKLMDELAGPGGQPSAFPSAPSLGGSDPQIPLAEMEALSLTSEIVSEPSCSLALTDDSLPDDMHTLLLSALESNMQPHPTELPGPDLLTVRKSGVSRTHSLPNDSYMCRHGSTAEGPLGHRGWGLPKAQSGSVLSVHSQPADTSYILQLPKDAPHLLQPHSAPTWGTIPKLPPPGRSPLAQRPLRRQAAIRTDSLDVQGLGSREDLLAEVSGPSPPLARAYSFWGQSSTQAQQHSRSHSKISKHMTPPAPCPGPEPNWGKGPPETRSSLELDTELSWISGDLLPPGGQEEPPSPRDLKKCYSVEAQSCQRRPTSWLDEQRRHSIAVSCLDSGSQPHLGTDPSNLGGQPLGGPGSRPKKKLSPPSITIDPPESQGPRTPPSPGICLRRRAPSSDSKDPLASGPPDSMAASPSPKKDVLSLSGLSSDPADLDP

SMILES: CCOC(=O)C1=C(N2CCCCC2)C2(CC1=O)C(=O)N=C1C(C)=CC(C)=CN12 (stereo not shown) [SAK9]
- phosphorylated CaMKII / activation of CaMKII (CaMKII [1]): increased phosphorylated CaMKII

SMILES: CN1CCCC1c1cccnc1 (stereo not shown) [nicotin, reference compound]
- change in calcium concentration after adding nicotin ([2]; Cav3.1 non-expressing cell, nicotin 1 μM): an increase in the calcium concentration after adding nicotin was confirmed

SMILES: O=C1N=C2C=CC=CN2C12Cc1ccccc1C2 [ST101, reference compound]
- LTP potentiation effect [3]: does not show a strong LTP potentiation effect

SMILES: COc1cc2c(cc1OC)C(=O)C(CC1CCN(Cc3ccccc3)CC1)C2 (stereo not shown) [Donepezil hydrochloride]
- efficacy ratio of the clinical result (Alzheimer's disease): about 50%

SMILES: CCOC(=O)C1=C(N2CCCCC2)C2(CC1=O)C(=O)N=C1C=CC=CN12 (stereo not shown) [SAK8]
- phosphorylated CaMKII / activation of CaMKII (CaMKII [1]): increased phosphorylated CaMKII

SMILES: CCOC(=O)C1=C(N2CCCCC2)C2(CC1=O)C(=O)N=C1C(C)=CC=CN12 (stereo not shown) [SAK3]
- amount of acetylcholine liberated by nicotine in hippocampus ([4]; 1.0 mg/kg administration group, compared with Sham group): above that of the Sham group
- amount of acetylcholine liberated by nicotine in hippocampus ([4]; intraperitoneal, 40 minutes before test, versus group without SAK3): increased
- amount of influent calcium ion induced by adding ATP ([5]; ATP 0.1 μM, under the presence of SAK3 100 pM, transfected cells): not potentiated
- change in calcium concentration after SAK3 addition ([5]; SAK3 100 pM): An increase in calcium concentration was confirmed
- change in calcium concentration after SAK3 addition ([5]; SAK3 100 pM, mibefradil (10 μM) added): no increase in calcium concentration by SAK3 was confirmed
- amount of intracellular influent calcium ion induced by SAK3 ([5]; Cav3.1 transfected cells, SAK3 100 pM): showed an increase in the amount of influent calcium ion
- increase in amount of influent calcium ion induced by SAK3 ([5]; Cav3.1 transfected cells, addition of mibefradil (10 μM)): nearly cancelled out
- amount of influent calcium ion induced by adding DHPG ([5]; DHPG 20 μM, under the presence of SAK3 100 pM, transfected cells): not potentiated
- activation of T-type voltage dependent calcium channel relative to ST101 ([5]; compared with ST101): ≥ 10 folds
- increase of the amount of influent calcium ion induced by nicotin under the presence of SAK3, transfected cells relative to non-transfected cells ([5]; nicotin 1 μM, SAK3 100 pM): 2 folds
- effect of SAK3 on amount of influent calcium ion induced by nicotin ([5]; nicotin 1 μM, mibefradil (10 μM) added): cancelled out
- phosphorylated CaMKII / CaMKII activation (CaMKII [6]): an increase of phosphorylated CaMKII and a potentiation of CaMKII activation were confirmed
- improvement of cognitive dysfunction by olfactolectomy (Y maze test) [7]: almost completely improved
- improvement of cognitive dysfunction by olfactolectomy (novel object recognition test) [8]: almost completely improved
- change in calcium concentration after SAK3 addition ([2]; Cav3.1 non-expressing cell, SAK3 100 pM): there was no change in the calcium concentration
- amount of intracellular influent calcium ion induced by SAK3 ([2]; Cav3.1 non-transfected cells, SAK3 100 pM): do not show the change in the amount of influent calcium ion
- LTP potentiation effect [3]: a strong potentiation effect was observed
- phosphorylated CaMKII / activation of CaMKII (CaMKII [1]): increased phosphorylated CaMKII

SMILES: CCOC(=O)C1=C(SC)C2(CC1=O)C(=O)N=C1C=CC=CN12 (stereo not shown) [SAK1]
- phosphorylated CaMKII / CaMKII activation (CaMKII [6]): an increase of phosphorylated CaMKII and a potentiation of CaMKII activation were confirmed
- LTP potentiation effect [3]: a strong potentiation effect was observed
